# Values quoted from earlier work as cited in patent publication US20190224118A1, “ORAL GASTRORETENTIVE FORMULATIONS AND USES THEREOF” (INTEC PHARMA LTD., priority 2016, published 2019).
SMILES,"plasma levels of active 11-hydroxy metabolite, oral administration versus smoking (oral versus smoking)",number of metabolites identified in urine (urine)
"CCCCCc1cc(O)c2c(c1)OC(C)(C)[C@@H]1CCC(C)=C[C@@H]21 [Δ9-THC, Δ-9-tetrahydrocannabinol]",about three,–
"C=C(C)[C@@H]1CCC(C)=C[C@H]1c1c(O)cc(CCCCC)cc1O [CBD, cannabidiol]",–,more than 33
